Tests used:
[1] = target: T1, Muscarinic acetylcholine receptor M1 (Homo sapiens, UniProt P11229); format: functional, cell-based
T1 sequence (P11229 whole entry): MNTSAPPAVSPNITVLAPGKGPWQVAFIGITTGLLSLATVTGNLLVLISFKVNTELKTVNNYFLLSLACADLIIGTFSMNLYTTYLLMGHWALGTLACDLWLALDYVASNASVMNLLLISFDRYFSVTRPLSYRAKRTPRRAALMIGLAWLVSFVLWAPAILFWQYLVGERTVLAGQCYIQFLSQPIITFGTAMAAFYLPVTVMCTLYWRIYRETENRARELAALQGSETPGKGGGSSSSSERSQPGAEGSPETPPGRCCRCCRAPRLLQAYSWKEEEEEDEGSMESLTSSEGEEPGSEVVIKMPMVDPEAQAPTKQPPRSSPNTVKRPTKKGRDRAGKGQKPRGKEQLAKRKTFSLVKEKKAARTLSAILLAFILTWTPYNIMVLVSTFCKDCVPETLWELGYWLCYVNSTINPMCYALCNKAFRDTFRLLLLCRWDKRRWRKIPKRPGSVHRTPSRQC

[2] = target: Neuronal acetylcholine receptor subunit alpha-4 (Homo sapiens, UniProt P43681)
[3] = target: Gamma-aminobutyric acid receptor subunit alpha-1 (Rattus norvegicus, UniProt P62813); format: functional
[4] = target: T2, 5-hydroxytryptamine receptor 2C (Homo sapiens, UniProt P28335)
T2 sequence (P28335 whole entry): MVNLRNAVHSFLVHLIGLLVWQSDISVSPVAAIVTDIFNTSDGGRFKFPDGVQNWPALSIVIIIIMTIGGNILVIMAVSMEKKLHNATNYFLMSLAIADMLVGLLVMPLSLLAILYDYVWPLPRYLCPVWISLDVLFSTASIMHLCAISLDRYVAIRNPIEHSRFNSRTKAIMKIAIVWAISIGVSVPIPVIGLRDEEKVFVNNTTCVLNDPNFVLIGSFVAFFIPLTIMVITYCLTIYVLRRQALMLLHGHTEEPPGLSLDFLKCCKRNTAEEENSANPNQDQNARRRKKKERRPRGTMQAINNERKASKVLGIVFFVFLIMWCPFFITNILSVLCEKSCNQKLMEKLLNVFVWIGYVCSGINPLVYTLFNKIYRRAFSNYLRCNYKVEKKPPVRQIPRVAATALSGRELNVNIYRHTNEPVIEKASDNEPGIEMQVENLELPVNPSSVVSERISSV

[5] = target: Melanocortin receptor 3 (Homo sapiens, UniProt P41968)
[6] = target: Delta-type opioid receptor (Homo sapiens, UniProt P41143)
[7] = target: T3, Prostaglandin G/H synthase 1 (Rattus norvegicus, UniProt Q63921); format: functional
T3 sequence (Q63921 whole entry): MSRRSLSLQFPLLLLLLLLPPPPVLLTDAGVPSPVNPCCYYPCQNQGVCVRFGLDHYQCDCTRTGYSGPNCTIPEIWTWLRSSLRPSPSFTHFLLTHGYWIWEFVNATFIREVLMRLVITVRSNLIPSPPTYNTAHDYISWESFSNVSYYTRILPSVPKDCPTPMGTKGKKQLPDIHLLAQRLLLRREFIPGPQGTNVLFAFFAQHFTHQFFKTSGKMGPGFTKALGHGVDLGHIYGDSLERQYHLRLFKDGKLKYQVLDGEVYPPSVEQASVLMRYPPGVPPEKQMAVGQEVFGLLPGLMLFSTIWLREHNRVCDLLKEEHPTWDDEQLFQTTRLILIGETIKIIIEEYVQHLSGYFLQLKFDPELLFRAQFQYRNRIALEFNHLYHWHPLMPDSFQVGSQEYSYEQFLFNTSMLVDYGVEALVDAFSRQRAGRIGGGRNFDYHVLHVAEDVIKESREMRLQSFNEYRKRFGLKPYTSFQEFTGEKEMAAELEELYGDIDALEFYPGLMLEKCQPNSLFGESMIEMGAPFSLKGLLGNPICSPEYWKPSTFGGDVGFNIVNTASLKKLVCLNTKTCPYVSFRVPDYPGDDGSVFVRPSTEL

[8] = target: Sodium-dependent dopamine transporter (Homo sapiens, UniProt Q01959)
Further: assay procedure not described here.

Delta-type opioid receptor, sequence (P41143 whole entry): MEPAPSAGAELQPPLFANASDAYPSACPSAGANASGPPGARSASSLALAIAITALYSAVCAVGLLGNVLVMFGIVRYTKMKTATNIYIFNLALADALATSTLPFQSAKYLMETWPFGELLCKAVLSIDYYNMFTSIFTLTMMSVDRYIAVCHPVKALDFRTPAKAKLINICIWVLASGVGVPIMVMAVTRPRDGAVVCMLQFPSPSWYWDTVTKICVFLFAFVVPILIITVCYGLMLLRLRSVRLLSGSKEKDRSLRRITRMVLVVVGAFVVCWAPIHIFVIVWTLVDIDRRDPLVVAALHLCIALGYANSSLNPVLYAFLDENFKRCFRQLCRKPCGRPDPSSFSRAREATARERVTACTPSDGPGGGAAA
Gamma-aminobutyric acid receptor subunit alpha-1, sequence (P62813 whole entry): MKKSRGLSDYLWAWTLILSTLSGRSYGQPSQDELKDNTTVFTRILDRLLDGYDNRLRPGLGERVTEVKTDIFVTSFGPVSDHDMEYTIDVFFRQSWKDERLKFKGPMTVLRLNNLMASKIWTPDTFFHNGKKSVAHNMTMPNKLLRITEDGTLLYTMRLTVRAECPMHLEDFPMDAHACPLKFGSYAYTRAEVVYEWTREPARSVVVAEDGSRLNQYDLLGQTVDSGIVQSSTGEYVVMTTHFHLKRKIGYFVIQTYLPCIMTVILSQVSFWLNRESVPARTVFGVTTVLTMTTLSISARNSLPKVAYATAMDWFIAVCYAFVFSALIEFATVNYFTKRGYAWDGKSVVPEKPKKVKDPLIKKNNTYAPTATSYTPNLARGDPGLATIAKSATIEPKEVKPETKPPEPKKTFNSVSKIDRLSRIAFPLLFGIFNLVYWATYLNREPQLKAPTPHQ
Sodium-dependent dopamine transporter, sequence (Q01959 whole entry): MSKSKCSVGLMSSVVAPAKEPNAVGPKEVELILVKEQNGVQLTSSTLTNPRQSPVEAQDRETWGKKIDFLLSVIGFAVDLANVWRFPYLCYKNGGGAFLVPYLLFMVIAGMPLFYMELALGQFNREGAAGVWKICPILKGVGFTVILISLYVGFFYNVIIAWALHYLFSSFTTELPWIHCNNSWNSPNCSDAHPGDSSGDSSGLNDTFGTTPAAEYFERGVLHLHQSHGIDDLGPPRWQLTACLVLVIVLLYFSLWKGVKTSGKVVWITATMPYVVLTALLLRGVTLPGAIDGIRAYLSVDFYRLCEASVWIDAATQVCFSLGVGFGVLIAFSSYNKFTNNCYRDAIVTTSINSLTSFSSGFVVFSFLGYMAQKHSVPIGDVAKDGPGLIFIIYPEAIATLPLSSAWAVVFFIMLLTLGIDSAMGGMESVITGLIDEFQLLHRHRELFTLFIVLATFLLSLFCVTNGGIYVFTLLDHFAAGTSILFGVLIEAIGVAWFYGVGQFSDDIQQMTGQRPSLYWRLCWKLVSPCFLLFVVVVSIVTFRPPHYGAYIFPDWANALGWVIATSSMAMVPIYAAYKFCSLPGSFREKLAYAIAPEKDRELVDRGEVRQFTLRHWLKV
Melanocortin receptor 3, sequence (P41968 whole entry): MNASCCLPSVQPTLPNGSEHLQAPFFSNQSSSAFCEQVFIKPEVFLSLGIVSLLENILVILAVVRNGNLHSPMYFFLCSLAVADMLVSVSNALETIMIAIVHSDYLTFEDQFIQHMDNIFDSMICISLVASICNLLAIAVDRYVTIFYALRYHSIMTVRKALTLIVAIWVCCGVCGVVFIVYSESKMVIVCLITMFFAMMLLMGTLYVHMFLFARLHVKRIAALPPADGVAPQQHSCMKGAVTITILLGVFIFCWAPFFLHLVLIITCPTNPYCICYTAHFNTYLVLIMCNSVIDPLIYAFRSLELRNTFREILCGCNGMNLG
Neuronal acetylcholine receptor subunit alpha-4, sequence (P43681 whole entry): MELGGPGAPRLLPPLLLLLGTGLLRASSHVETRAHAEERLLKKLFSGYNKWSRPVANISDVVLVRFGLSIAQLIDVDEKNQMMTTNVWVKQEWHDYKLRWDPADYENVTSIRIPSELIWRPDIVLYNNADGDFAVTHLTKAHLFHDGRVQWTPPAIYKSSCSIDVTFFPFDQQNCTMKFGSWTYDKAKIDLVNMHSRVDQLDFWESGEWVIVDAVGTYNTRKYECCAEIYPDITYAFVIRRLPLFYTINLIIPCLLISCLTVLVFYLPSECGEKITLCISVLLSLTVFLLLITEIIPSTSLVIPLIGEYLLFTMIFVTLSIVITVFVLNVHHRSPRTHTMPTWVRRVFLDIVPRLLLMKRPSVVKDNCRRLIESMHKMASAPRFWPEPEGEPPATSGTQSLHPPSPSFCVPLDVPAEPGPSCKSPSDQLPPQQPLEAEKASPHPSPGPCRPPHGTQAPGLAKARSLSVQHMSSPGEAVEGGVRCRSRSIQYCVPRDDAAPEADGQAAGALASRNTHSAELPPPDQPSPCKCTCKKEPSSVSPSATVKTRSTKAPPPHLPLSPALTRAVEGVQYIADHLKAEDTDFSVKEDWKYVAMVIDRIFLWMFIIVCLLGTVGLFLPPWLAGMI

Structure (SMILES) | AC50 [1] | AC50 [2] | AC50 [3] | AC50 [4] | AC50 [5] | AC50 [6] | AC50 [7] | AC50 [8]
O=P(O)(O)C(Cl)(Cl)P(=O)(O)O [CLODRONIC ACID] | > 30 µM | – | – | – | – | – | – | –
CC(C)=CCOc1ccc(/C=C/C(=O)c2ccc(OCC=C(C)C)cc2OCC(=O)O)cc1 [SOFALCONE] | – | > 30 µM | > 30 µM | > 30 µM | > 30 µM | 26 µM | > 30 µM | 13 µM
C[C@]12CC[C@H](O)CC1=CC[C@@H]1[C@@H]2CC[C@]2(C)C(c3cccnc3)=CC[C@@H]12 [ABIRATERONE] | – | > 10 µM | > 10 µM | > 30 µM | > 30 µM | > 30 µM | > 30 µM | > 30 µM
CC(C1=C(CCN(C)C)Cc2ccccc21)c1ccccn1 (stereo not drawn) | > 30 µM | – | – | – | – | – | – | –
CCOC(=O)[C@H](CCc1ccccc1)N[C@@H](C)C(=O)N1Cc2cc(OC)c(OC)cc2C[C@H]1C(=O)O [MOEXIPRIL] | > 30 µM | – | – | – | – | – | – | –
C[C@@H](O)[C@H]1C(=O)N2C(C(=O)[O-])=C(SC3Cn4cnc[n+]4C3)[C@H](C)[C@H]12 (stereo partly drawn) [BIAPENEM] | > 30 µM | – | – | – | – | – | – | –
CCn1cc(C(=O)O)c(=O)c2cc(F)c(N3CCNCC3)nc21 [ENOXACIN] | – | > 10 µM | > 10 µM | > 10 µM | > 30 µM | > 10 µM | > 30 µM | > 10 µM
CCOC(=O)c1ccc(OC(=O)CCCCCNC(=N)N)cc1 [GABEXATE] | > 30 µM | – | – | – | – | – | – | –
CC(=O)OCC[N+](C)(C)C [ACETYLCHOLINE] | – | – | > 10 µM | > 30 µM | > 30 µM | > 10 µM | > 30 µM | > 30 µM
CN(C)c1cc(NC(=O)CNC(C)(C)C)c(O)c2c1C[C@H]1C[C@H]3[C@H](N(C)C)C(O)=C(C(N)=O)C(=O)[C@@]3(O)C(O)=C1C2=O [TIGECYCLINE] | – | > 30 µM | > 30 µM | > 30 µM | > 30 µM | > 30 µM | 0.16 µM | > 30 µM
COCCCOc1ccnc(C[S+]([O-])c2nc3ccccc3[nH]2)c1C (stereo not drawn) [RABEPRAZOLE] | – | > 10 µM | > 10 µM | > 30 µM | > 30 µM | > 30 µM | > 30 µM | > 10 µM
NS(=O)(=O)c1cc(C2(O)NC(=O)c3ccccc32)ccc1Cl (stereo not drawn) [CHLORTHALIDONE] | – | > 10 µM | > 10 µM | > 30 µM | > 10 µM | – | > 10 µM | > 10 µM
COc1ccc2c(c1)[C@]13CCCC[C@@H]1[C@H](C2)N(C)CC3 [DEXTROMETHORPHAN] | – | > 10 µM | > 10 µM | > 30 µM | > 30 µM | > 10 µM | > 30 µM | > 10 µM
CCCCOc1ccc(CC(=O)NO)cc1 [BUFEXAMAC] | > 30 µM | – | – | – | – | – | – | –
C[C@@H]1C[C@H]2[C@@H]3C[C@H](F)C4=CC(=O)C=C[C@]4(C)[C@@]3(Cl)[C@@H](O)C[C@]2(C)[C@H]1C(=O)COC(=O)C(C)(C)C [CLOCORTOLONE PIVALATE] | > 30 µM | – | – | – | – | – | – | –
CC(N)CCCC(C)(C)O (stereo not drawn) [HEPTAMINOL] | > 30 µM | – | – | – | – | – | – | –
CC[C@H]1OC(=O)[C@H](C)[C@@H](O[C@H]2C[C@@](C)(OC)[C@@H](O)[C@H](C)O2)[C@H](C)[C@@H](O[C@@H]2O[C@H](C)C[C@H](N(C)C)[C@H]2O)[C@](C)(OC)C[C@@H](C)C(=O)[C@H](C)[C@@H](O)[C@]1(C)O [CLARITHROMYCIN] | – | > 30 µM | – | – | > 30 µM | – | > 30 µM | > 30 µM
O=C(O)CSCC(=O)NC1CCSC1=O (stereo not drawn) [ERDOSTEINE] | – | > 30 µM | > 30 µM | > 30 µM | > 30 µM | > 30 µM | > 30 µM | > 30 µM

Structure (SMILES) | AC50 [1] | AC50 [2] | AC50 [3] | AC50 [4] | AC50 [5] | AC50 [6] | AC50 [7] | AC50 [8]
CNC(=O)Oc1ccc2c(c1)[C@]1(C)CCN(C)[C@@H]1N2C [PHYSOSTIGMINE] | – | > 30 µM | > 30 µM | > 30 µM | > 30 µM | > 30 µM | > 30 µM | > 30 µM
C[C@@H]1CCC[C@H](C)N1NC(=O)c1ccc(Cl)c(S(N)(=O)=O)c1 [CLOPAMIDE] | – | > 30 µM | > 30 µM | > 30 µM | > 30 µM | > 30 µM | > 30 µM | > 30 µM
O=[N+]([O-])O[C@H]1CO[C@H]2[C@@H]1OC[C@H]2O[N+](=O)[O-] [ISOSORBIDE DINITRATE] | > 30 µM | – | – | – | – | – | – | –
COc1cccc(N(C)C(=S)Oc2ccc3c(c2)CCCC3)n1 [LIRANAFTATE] | – | > 30 µM | > 30 µM | > 30 µM | > 30 µM | > 30 µM | > 30 µM | > 30 µM
CCCCC/C=C\C/C=C\C/C=C\CCCCC(=O)O [GAMOLENIC ACID] | > 30 µM | – | – | – | – | – | – | –
O=C(CCCN1CCC2(CC1)C(=O)NCN2c1ccccc1)c1ccc(F)cc1 [SPIPERONE] | – | > 30 µM | > 30 µM | 10.3 µM | > 30 µM | – | > 30 µM | 7.2 µM
NS(=O)(=O)c1cc(C(=O)O)cc(N2CCCC2)c1Oc1ccccc1 [PIRETANIDE] | – | > 30 µM | > 30 µM | > 30 µM | > 30 µM | > 30 µM | > 30 µM | > 30 µM
O=C1c2c(O)cccc2Cc2cccc(O)c21 [ANTHRALIN] | > 30 µM | – | – | – | – | – | – | –
C#C[C@]1(O)CC[C@H]2[C@@H]3CCc4cc(OC)ccc4[C@H]3CC[C@@]21C [MESTRANOL] | – | > 10 µM | > 10 µM | > 30 µM | > 10 µM | > 30 µM | > 10 µM | 20 µM
OCCN1CCN(CC/C=C2/c3ccccc3Sc3ccc(Cl)cc32)CC1 [ZUCLOPENTHIXOL] | – | > 10 µM | > 10 µM | 1 µM | > 10 µM | > 30 µM | > 10 µM | 1 µM
O=C(O)c1cc(O)c2c3nc4ccccc4oc-3cc(=O)c2n1 [PIRENOXINE] | – | > 30 µM | > 30 µM | 2.3 µM | > 30 µM | 2.2 µM | > 30 µM | > 30 µM
CNCCCC1c2ccccc2C=Cc2ccccc21 [PROTRIPTYLINE] | – | > 10 µM | > 10 µM | – | > 10 µM | > 30 µM | > 10 µM | 17.8 µM
O=c1oc2ccccc2c(O)c1Cc1c(O)c2ccccc2oc1=O [DICUMAROL] | – | > 10 µM | > 10 µM | > 30 µM | > 10 µM | > 30 µM | > 30 µM | > 10 µM
CO[C@@]1(NC(=O)CSCC#N)C(=O)N2C(C(=O)O)=C(CSc3nnnn3C)CS[C@@H]21 [CEFMETAZOLE] | – | – | > 30 µM | – | – | > 30 µM | – | –
N=C(N)c1ccc2cc(OC(=O)c3ccc(N=C(N)N)cc3)ccc2c1 [NAFAMOSTAT] | – | > 30 µM | > 30 µM | > 30 µM | > 30 µM | – | > 30 µM | 2.8 µM
C[C@H]1C[C@H]2[C@@H]3CCC4=CC(=O)C=C[C@]4(C)[C@@]3(Cl)[C@@H](O)C[C@]2(C)[C@@]1(O)C(=O)CO [BECLOMETHASONE] | – | > 10 µM | > 10 µM | > 30 µM | > 30 µM | > 30 µM | > 30 µM | > 10 µM
CN(C)C(=O)Oc1cc(OC(=O)N(C)C)cc(C(O)CNC(C)(C)C)c1 (stereo not drawn) [BAMBUTEROL] | – | > 30 µM | – | – | > 30 µM | – | > 30 µM | > 30 µM
